Here are results for 3 compounds from patent US20200331950A1, “SGLTS INHIBITOR AND APPLICATION THEREOF” (SHANDONG DANHONG PHARMACEUTICAL CO., LTD., priority 2018, published 2020).

The target in one test is T1, Human-SGLT1 (Homo sapiens, UniProt P13866).
T1 sequence (P13866 1-664): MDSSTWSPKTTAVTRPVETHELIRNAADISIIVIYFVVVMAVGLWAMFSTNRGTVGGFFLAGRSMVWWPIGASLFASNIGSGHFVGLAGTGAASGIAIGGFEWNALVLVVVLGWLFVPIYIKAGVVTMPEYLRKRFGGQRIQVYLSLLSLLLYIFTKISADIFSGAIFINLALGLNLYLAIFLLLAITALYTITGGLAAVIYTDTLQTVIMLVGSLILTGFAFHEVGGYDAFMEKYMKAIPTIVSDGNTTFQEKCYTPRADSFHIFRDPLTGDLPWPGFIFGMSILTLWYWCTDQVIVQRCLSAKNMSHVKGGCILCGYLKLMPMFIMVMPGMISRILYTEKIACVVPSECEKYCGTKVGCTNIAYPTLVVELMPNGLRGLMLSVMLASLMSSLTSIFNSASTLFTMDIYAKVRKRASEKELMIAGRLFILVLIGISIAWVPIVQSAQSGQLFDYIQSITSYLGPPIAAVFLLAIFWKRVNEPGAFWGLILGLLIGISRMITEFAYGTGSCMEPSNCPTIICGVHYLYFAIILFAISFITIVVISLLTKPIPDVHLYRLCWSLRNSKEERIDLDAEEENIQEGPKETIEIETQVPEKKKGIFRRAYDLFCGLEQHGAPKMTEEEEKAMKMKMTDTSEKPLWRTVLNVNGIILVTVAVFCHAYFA
Kind of test: SGLT1 glucose transport test ([14C]-labeled methyl a-D-glucopyranoside uptake). In kind it is cell-based. Particulars: cells stably expressing Human-SGLT1; 37° C., 2 hours. The source says:
Biological Activity Experiment 1: SGLT1 Glucose Transport Test.
(§1) 1. Purpose of the Experiment:
The effect of the compound on the glucose transport activity of SGLT1 transporter was detected by measuring the amount of [′C]-labeled glucose entering cells with high expression of Human-SGLT1.
The cells stably expressing Human-SGLT1 were constructed by Wuxi AppTec(Shanghai) Co., Ltd. SGLT1 cells were laid in Cytostar-T (PerkinElmer) 96-well cell culture plate and cultured overnight in 5% CO2 environment at 37° C.
2.2. SGLT1 Glucose Transport Test.
(§2) 1) Experimental buffer, including: 10 mM 4-hydroxyethylpiperazineethanesulfonic acid (HEPES), 1.2 mM magnesium chloride (MgCl2), 4.7 mM potassium chloride (KCl), 2.2 mM calcium chloride (CaCl2) and 120 mM sodium chloride (NaCl).
2) Compounds were serially diluted in 100% dimethyl sulfoxide (DMSO) starting at 1 mM and make a 5-folds, 8 points serials compound dilutions.
3) 3 μM [′^4C]-labeled methyl a-D-glucopyranoside was prepared with the experimental buffer.
4) The cells were treated with 49 uL of the experimental buffer, 1 μL of the gradient diluted compound and 50 μL of the 3 μM [^14C]-labeled methyl a-D-lucopyranosid solution at 37° C. for 2 hours.
5) The data were read with an isotope detector Micro beta Reader.
6) The IC50 value of the tested compound was obtained by the calculation formula: log(inhibitor) vs. response—Variable slope, using GraphPad Prism 5.0 software.

In another test the target is T2, Human-SGLT2 (Homo sapiens, UniProt P31639).
T2 sequence (P31639 1-672): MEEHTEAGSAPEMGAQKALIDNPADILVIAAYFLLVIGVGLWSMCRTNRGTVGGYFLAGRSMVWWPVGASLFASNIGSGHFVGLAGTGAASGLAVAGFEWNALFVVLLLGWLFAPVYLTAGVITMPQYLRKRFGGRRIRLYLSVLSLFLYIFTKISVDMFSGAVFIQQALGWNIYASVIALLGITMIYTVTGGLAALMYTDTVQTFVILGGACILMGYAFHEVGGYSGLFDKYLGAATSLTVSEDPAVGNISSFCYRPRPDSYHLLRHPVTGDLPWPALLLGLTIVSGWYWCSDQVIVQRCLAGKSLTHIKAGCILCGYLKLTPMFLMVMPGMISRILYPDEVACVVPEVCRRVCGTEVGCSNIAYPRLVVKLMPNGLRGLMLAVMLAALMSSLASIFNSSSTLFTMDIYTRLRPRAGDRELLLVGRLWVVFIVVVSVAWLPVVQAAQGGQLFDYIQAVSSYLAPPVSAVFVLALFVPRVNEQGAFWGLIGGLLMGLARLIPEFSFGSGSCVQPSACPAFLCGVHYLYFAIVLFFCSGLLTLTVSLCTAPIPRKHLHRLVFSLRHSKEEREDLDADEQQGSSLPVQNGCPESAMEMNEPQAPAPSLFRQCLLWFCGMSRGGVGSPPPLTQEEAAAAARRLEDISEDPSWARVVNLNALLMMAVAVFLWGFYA
Kind of test: SGLT2 glucose transport test ([14C]-labeled methyl a-D-glucopyranoside uptake). Format: cell-based. The following applies: cells stably expressing Human-SGLT2; 37° C., 2 hours. The method, then: Biological Activity Experiment 2: SGLT2 Glucose Transport Test.
as §1
The effect of the compound on the glucose transport activity of SGLT2 transporter was detected by measuring the amount of [^14C]-labeled glucose entering cells with high expression of Human-SGLT2.
The cells stably expressing Human-SGLT2 were constructed by Wuxi AppTec(Shanghai) Co., Ltd. SGLT2 cells were laid in 96-well cell culture plate (Greiner) and cultured overnight in 5% CO2 environment at 37° C.
2.2. SGLT2 Glucose Transport Test.
as §2
2) Stop buffer, including: 10 mM 4-hydroxyethylpiperazineethanesulfonic acid (HEPES), 1.2 mM magnesium chloride (MgCl2), 4.7 mM potassium chloride (KCl), 2.2 mM calcium chloride (CaCl2), 120 mM sodium chloride (NaCl) and 1 μM LX4211.
3) Compounds were serially diluted in 100% dimethyl sulfoxide (DMSO) starting at 10 uM and make a 5-folds, 8 points serials compound dilutions.
4) 6 μM [^14C]-labeled methyl a-D-lucopyranosid was prepared with the experimental buffer.
5) The cells were treated with 49 uL of the experimental buffer, 1 μL of the gradient diluted compound and 50 μL of the 6 μM [^14C]-labeled methyl a-D-lucopyranosid solution at 37° C. for 2 hours.
6) The solution was sucked out from holes, and the cells were rinsed with the stop buffer for 3 times.
7) The cells were lysed with 50 ul of 10% sodium hydroxide solution, the cell lysate was sucked into a scintillation tube, into which 2 mL scintillation solution was then added.
8) The data were read with an isotope detector Tricarb.
9) The IC50 value of the tested compound was obtained by the calculation formula: log(inhibitor) vs. response—Variable slope, using GraphPad Prism 5.0 software.

On to `CS[C@H]1OC(c2ccc(Cl)c(Cc3ccc(C4=CCC(F)(F)CC4)cc3)c2)[C@H](O)[C@@H](O)[C@@H]1O` (stereo partly drawn) [WXD001], for which the IC50 stood at 210 nM against Human-SGLT1 and 3.98 nM at Human-SGLT2.

For the compound `CS[C@H]1O[C@@H](c2ccc(C)c(Cc3ccc(C4=CCC(F)(F)CC4)cc3)c2)[C@H](O)[C@@H](O)[C@@H]1O` [WXD003], the IC50 against Human-SGLT1 came out at 49.5 nM; on Human-SGLT2 it was 2.04 nM.

On to `CCc1ccc([C@@H]2O[C@H](SC)[C@@H](O)[C@H](O)[C@H]2O)cc1Cc1ccc(C2=CCC(F)(F)CC2)cc1` [WXD010], for which the results for the IC50 against Human-SGLT1 and on Human-SGLT2 were 14.8 nM and 2.49 nM, respectively.
